This note sets out measurements from publication PMC12339163, “Combining Plant Bioactives With Antibiotics for Enhanced Antibiofilm Activity Against Uropathogenic Staphylococcus spp. and Cytotoxicity Evaluation” (Advances in Pharmacological and Pharmaceutical Sciences, 2025).

Assay [1] has as its system S. epidermidis biofilm. Kind of assay: Biofilm inhibition assay (MBIC, MTT). Type of assay: cell-based, Staphylococcus epidermidis. To be noted: Staphylococcus epidermidis, 24 h; geometric mean, S. epidermidis (n = 3). As for the experimental part:
The biofilm formation inhibitory activity of NPs and ATBs was carried out according to the method previously described. A total of 100 µL of bacterial inoculum (1.5 × 10^6 CFU/mL) was used, and 100 µL of each sample was added to the microplate to achieve final concentrations ranging from 0.25 µg/mL to 128 µg/mL for ATBs and from 8 µg/mL to 1024 µg/mL for NPs. Then, the microplate was incubated at 37°C for 24 h. After incubation, the plates were gently emptied and washed three times with a phosphate buffer solution at pH 7.2. Then, the MTT solution (0.5 mg/mL) prepared in PBS was introduced into each well, and the microplate was further incubated at 37°C for 24 h. Untreated wells containing bacterial suspension and MHB supplemented with 1% glucose were considered positive controls, and wells containing only MHB+1% glucose without bacteria were used as blanks. After incubation, the MTT solution was aspirated, then 150 µL of DMSO was introduced to dissolve the formazan crystal formed by viable bacteria, and the optical density (OD) was measured at 570 nm using a microplate reader (VERSA-max). The percentage of biofilm inhibition was calculated using the formula below, and the minimal biofilm inhibitory concentration (MBIC) was recorded as the lowest concentration of NPs or ATBs that inhibited 100% of biofilm:(1) % biofilm inhibition=ODcontrol−ODblank−ODtest−ODblank/ODcontrol−ODblank×100.

The test system of assay [2] is Staphylococcus aureus biofilm. Kind of assay: Checkerboard combination assay, biofilm eradication. Type of assay: cell-based. As to the method:
(§1) The effect of the combination of ATBs with NPs on the preformed biofilm was evaluated by determining the FICI, as described above for biofilm formation, with slight modifications. After biofilm formation for 24 h, the plate was gently emptied and washed three times with PBS. Then, 50 µL of ATBs and 50 µL of NPs were introduced to the plate. The final concentration ranges from 0.0625 to 128 µg/mL and from 4 to 512 µg/mL for ATBs and NPs, respectively, and is incubated at 37°C for 24 h. After incubation, the medium was gently removed, and the plate was washed three times with PBS. At the end of the incubation time, the MTT reduction assay was performed, and the MBEC was determined. To assess the effect of the combination, the FICI was calculated and interpreted as described above.

Assay [3] deals with Staphylococcus saprophyticus biofilm. The assay is described as above. It counts as cell-based. As to the method:
as §1

For assay [4], the system named is Staphylococcus epidermidis biofilm. The assay is described as above. Type of assay: cell-based. As for the experimental part:
as §1

The test system of assay [5] is Staphylococcus aureus biofilm. The experiment in a line: Checkerboard combination assay, biofilm inhibition. It counts as cell-based. As for the experimental part:
(§2) The effect of the combination of ATBs with NPs on biofilm formation was evaluated by determining the FICI, as described above for planktonic cells, except that the MHB was supplemented with 1% glucose.
(§3) The lowest MBICs of ATBs or NPs that inhibited metabolic activity in the biofilm were determined as described above. The FICI was used to perform the effect of combination and calculated as follows: FICI: (MBIC of ATBs in combinations/MBIC of ATBs alone) + (MBIC of NP in the combinations/MBIC of NP alone). FICI was interpreted as indicated above.

Assay [6] relates to Staphylococcus saprophyticus biofilm. The experiment in a line: Checkerboard combination assay, biofilm inhibition. It counts as cell-based. As for the experimental part:
as §2, §3

Assay [7] has as its system Staphylococcus epidermidis biofilm. Kind of assay: Checkerboard combination assay, biofilm inhibition. Type of assay: cell-based. As to the method: as §2, §3
Assay [8] concerns planktonic cells of Staphylococcus epidermidis. Kind of assay: Checkerboard combination assay, planktonic cells. It counts as cell-based. The note with it: antibiotic alone; planktonic S. epidermidis; mean MIC.
Assay [9] relates to S. saprophyticus biofilm. Kind of assay: Biofilm eradication assay (MBEC, MTT). It counts as cell-based, Staphylococcus saprophyticus. The note with it: Staphylococcus saprophyticus, 24 h; geometric mean, S. saprophyticus (n = 3). As to the method:
The determination of the biofilm eradication potential of NPs and ATBs was performed as previously described. Briefly, 100 µL of bacterial inoculum (1.5 × 10^6 CFU/mL) and 100 µL of MHB + 1% glucose were introduced into the microplate, incubated at 37°C for 24 h, and the microplate was gently emptied and washed three times with PBS. Then, 200 µL of ATBs or NPs at respective concentrations ranging from 8 to 1024 µg/mL and from 16 to 2048 µg/mL were incubated at 37°C for 24 h. Once incubation was completed, the microplate was processed as described above, and the percentage of biofilm eradication was calculated using the formula below. The minimal biofilm eradicating concentration (MBEC) was recorded as the lowest concentration of the test sample that reduces 100% of biofilm:(2) % biofilm eradication=ODcontrol−ODblank−ODtest−ODblank/ODcontrol−ODblank×100.

The mark [10] stands for this setting: S. aureus biofilm eradication, antibiotic alone, mean MBEC.
[11] abbreviates: S. saprophyticus biofilm eradication, antibiotic alone, mean MBEC.
The mark [12] stands for this setting: S. epidermidis biofilm eradication, antibiotic alone, mean MBEC.
Setting [13] is: S. epidermidis, biofilm eradication, mean.
The mark [14] stands for this setting: antibiotic alone, S. aureus biofilm inhibition.
The mark [15] stands for this setting: S. saprophyticus, biofilm inhibition, mean.
Where [16] appears, read: antibiotic alone, S. saprophyticus biofilm inhibition.
The mark [17] stands for this setting: S. aureus, biofilm eradication, mean.
Where [18] appears, read: S. saprophyticus, biofilm eradication, mean.
Setting [19] is: S. aureus, biofilm inhibition, mean.
Where [20] appears, read: S. epidermidis, biofilm inhibition, mean.
Setting [21] is: antibiotic alone, S. epidermidis biofilm inhibition.

“And” between values parts separate entries of the source, which are not always exact repeats. Equal entries are not always repeated.

As for `C[C@H]1c2cccc(O)c2C(=O)C2=C(O)[C@]3(O)C(=O)C(C(N)=O)=C(O)[C@@H](N(C)C)[C@@H]3[C@@H](O)[C@@H]21` [Doxycycline, doxycycline], the minimal effective concentration was 3.08 µg/mL in assay [1] and 9.33 µg/mL in [9]. In addition, the “MBEC Alone ATB” value in assay [2] (setting [10]) was determined as 16 µg/mL; in [3] (setting [11]), 9.33 µg/mL; in assay [4] (setting [12]), 16 µg/mL; in [4] (setting [13]), 16 µg/mL. Also, the “MBIC alone, ATB” value in [5] (setting [14]) is 2.16 µg/mL; in assay [6] (setting [15]) it was 0.5 µg/mL; in assay [6] (setting [16]), 0.5 µg/mL; in assay [7] (antibiotic alone, S. epidermidis biofilm inhibition, listed as Dox) it was 3.08 µg/mL and 3.41 µg/mL. Besides, the MIC alone, ATB in assay [8] amounted to 7 µg/mL.
`Cc1nnc(SCC2=C(C(=O)O)N3C(=O)[C@@H](NC(=O)Cn4cnnn4)[C@H]3SC2)s1` [Cefazolin, cefazolin]: the minimal effective concentration worked out at 8.66 µg/mL in assay [1] and 10.7 µg/mL in assay [9]. The “MBEC Alone ATB” value in assay [2] (setting [10]) was found to be 42.66 µg/mL; in [2] (setting [17]), 42.66 µg/mL; in [3] (setting [11]), 10.66 µg/mL; in [3] (setting [18]), 48 µg/mL; in [4] (setting [12]), 10.66 µg/mL; in [4] (setting [13]), 42.66 µg/mL. Besides, the “MBIC alone, ATB” value stood at 4.66 µg/mL in assay [5] (setting [19]); 4.66 µg/mL in assay [5] (setting [14]); 8.33 µg/mL in assay [6] (setting [15]); 8.33 µg/mL in assay [6] (setting [16]); 8.66 µg/mL in assay [7] (setting [20]); 8.66 µg/mL in [7] (setting [21]). In addition, the MIC alone, ATB in assay [8] worked out at 42.7 µg/mL.
On to `CC[C@H]1OC(=O)[C@H](C)[C@@H](O[C@H]2C[C@@](C)(OC)[C@@H](O)[C@H](C)O2)[C@H](C)[C@@H](O[C@@H]2O[C@H](C)C[C@H](N(C)C)[C@H]2O)[C@](C)(O)C[C@@H](C)C(=O)[C@H](C)[C@@H](O)[C@]1(C)O` [Erythromycin, erythromycin], for which the minimal effective concentration in [1] worked out at 24 µg/mL; in assay [9] it was 29.3 µg/mL. For the same compound, the “MBEC Alone ATB” value was 44 µg/mL in assay [2] (setting [10]), 29.33 µg/mL in assay [3] (setting [11]), 29.33 µg/mL in assay [3] (setting [18]) and 18.66 µg/mL in assay [4] (setting [12]). Besides, the “MBIC alone, ATB” value in [5] (setting [14]) was found to be 42.83 µg/mL; in assay [6] (setting [16]) it was 27.33 µg/mL; in [7] (setting [21]), 24 µg/mL. In [8], the MIC alone, ATB came out at 32.7 µg/mL.
As for `NCC[C@H](O)C(=O)N[C@@H]1C[C@H](N)[C@@H](O[C@H]2O[C@H](CN)[C@@H](O)[C@H](O)[C@H]2O)[C@H](O)[C@H]1O[C@H]1O[C@H](CO)[C@@H](O)[C@H](N)[C@H]1O` [Amikacin, amikacin], the minimal effective concentration in assay [1] was 3.08 µg/mL; in assay [9], 13.3 µg/mL. Further, the “MBEC Alone ATB” value in [2] (setting [10]) amounted to 13.33 µg/mL; in assay [2] (setting [17]), 13.33 µg/mL; in [3] (setting [11]), 13.33 µg/mL; in [4] (setting [12]) it was 21.33 µg/mL. The “MBIC alone, ATB” value in assay [5] (setting [19]) was 1.83 µg/mL; in assay [5] (setting [14]) it was 1.83 µg/mL; in [6] (setting [15]), 2.08 µg/mL; in assay [6] (setting [16]), 2.08 µg/mL; in [7] (setting [20]) it was 3.08 µg/mL; in [7] (setting [21]), 3.08 µg/mL. For the same compound, in [8], the MIC alone, ATB came to 1.16 µg/mL.

As usually defined, the minimal effective concentration is the smallest amount tested that counted as effective. A higher minimal effective concentration goes with weaker potency.
